Results reported in the supplement of paper PMC11451515.

System: P12-Ichikawa
Test: cell viability relative to DMSO control; higher = less cytotoxic
Conditions: 48 h
Procedure, shortened: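 Viability values are per-plate percentages of DMSO wells, with background from cell-free wells. Library compounds in DMSO were pin-dosed, in an 11-point threefold series from 47 μM to 0.79 nM, onto NOMO1 or SEM (500 cells/well) or P12-Ichikawa (1000 cells/well) leukemia cells in 1536-well plates (5 μl). Those cells had been adapted for at least four passages in each medium, and CellTiter-Glo One luminescence was read after 48 h at 37°C.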

[1] = HPLM + 10% dialyzed FBS, 0.000781 µM
[2] = HPLM + 10% dialyzed FBS, 0.00234 µM
[3] = HPLM + 10% dialyzed FBS, 0.00702 µM
[4] = HPLM + 10% dialyzed FBS, 0.0211 µM
[5] = HPLM + 10% dialyzed FBS, 0.0632 µM
[6] = HPLM + 10% dialyzed FBS, 0.19 µM
[7] = HPLM + 10% dialyzed FBS, 0.569 µM
[8] = HPLM + 10% dialyzed FBS, 1.71 µM
[9] = HPLM + 10% dialyzed FBS, 5.12 µM
[10] = HPLM + 10% dialyzed FBS, 15.4 µM
[11] = HPLM + 10% dialyzed FBS, 46.1 µM
[12] = RPMI 5 mM glucose + 10% FBS, 0.000781 µM
[13] = RPMI 5 mM glucose + 10% FBS, 0.00234 µM
[14] = RPMI 5 mM glucose + 10% FBS, 0.00702 µM
[15] = RPMI 5 mM glucose + 10% FBS, 0.0211 µM
[16] = RPMI 5 mM glucose + 10% FBS, 0.0632 µM
[17] = RPMI 5 mM glucose + 10% FBS, 0.19 µM
[18] = RPMI 5 mM glucose + 10% FBS, 0.569 µM
[19] = RPMI 5 mM glucose + 10% FBS, 1.71 µM
[20] = RPMI 5 mM glucose + 10% FBS, 5.12 µM
[21] = RPMI 5 mM glucose + 10% FBS, 15.4 µM
[22] = RPMI 5 mM glucose + 10% FBS, 46.1 µM
[23] = RPMI 5 mM glucose + 10% dialyzed FBS, 0.000781 µM
[24] = RPMI 5 mM glucose + 10% dialyzed FBS, 0.00234 µM
[25] = RPMI 5 mM glucose + 10% dialyzed FBS, 0.00702 µM
[26] = RPMI 5 mM glucose + 10% dialyzed FBS, 0.0211 µM
[27] = RPMI 5 mM glucose + 10% dialyzed FBS, 0.0632 µM
[28] = RPMI 5 mM glucose + 10% dialyzed FBS, 0.19 µM
[29] = RPMI 5 mM glucose + 10% dialyzed FBS, 0.569 µM
[30] = RPMI 5 mM glucose + 10% dialyzed FBS, 1.71 µM
[31] = RPMI 5 mM glucose + 10% dialyzed FBS, 5.12 µM
[32] = RPMI 5 mM glucose + 10% dialyzed FBS, 15.4 µM
[33] = RPMI 5 mM glucose + 10% dialyzed FBS, 46.1 µM

Compound | cell viability [1] [%] | cell viability [2] [%] | cell viability [3] [%] | cell viability [4] [%] | cell viability [5] [%] | cell viability [6] [%] | cell viability [7] [%] | cell viability [8] [%] | cell viability [9] [%] | cell viability [10] [%] | cell viability [11] [%] | cell viability [12] [%] | cell viability [13] [%] | cell viability [14] [%] | cell viability [15] [%] | cell viability [16] [%] | cell viability [17] [%] | cell viability [18] [%] | cell viability [19] [%] | cell viability [20] [%] | cell viability [21] [%] | cell viability [22] [%] | cell viability [23] [%] | cell viability [24] [%] | cell viability [25] [%] | cell viability [26] [%] | cell viability [27] [%] | cell viability [28] [%] | cell viability [29] [%] | cell viability [30] [%] | cell viability [31] [%] | cell viability [32] [%] | cell viability [33] [%]
CO[C@H]1C[C@@H]2CC[C@@H](C)[C@@](O)(O2)C(=O)C(=O)N2CCCC[C@H]2C(=O)O[C@H]([C@H](C)C[C@@H]2CC[C@@H](OCCO)[C@H](OC)C2)CC(=O)[C@H](C)/C=C(/C)[C@@H](O)[C@@H](OC)C(=O)[C@H](C)C[C@H](C)\C=C/C=C\C=C/1C | 101 | 109 | 104 | 94.1 | 99.9 | 98.9 | 96.5 | 86.6 | 76.7 | 44.7 | 50.3 | 82.5 | 94 | 89.6 | 79.2 | 77.8 | 77.7 | 68.8 | 70.6 | 51.8 | 25.7 | 26.1 | 90.8 | 99.1 | 93.7 | 84.9 | 85.8 | 87.1 | 80.5 | 78.1 | 51.4 | 33.4 | 33.9
CCOC1=CC(=CC=C1C/2=N/[C@@](C)(C3=CC=C(Cl)C=C3)[C@](C)(N2C(=O)N4CCN(CC4)CC(=O)N5CCOCC5)C6=CC=C(Cl)C=C6)C(C)(C)C | 104 | 104 | 101 | 99.7 | 101 | 102 | 104 | 101 | 101 | 82.9 | 87.1 | 104 | 106 | 97.9 | 109 | 112 | 108 | 101 | 103 | 92.2 | 97.6 | 89.9 | 109 | 110 | 112 | 107 | 99.2 | 102 | 107 | 97.6 | 99.7 | 89.8 | 97.7
C[S+]([O-])c1ccc(-c2nc(-c3ccc(F)cc3)c(-c3ccncc3)[nH]2)cc1 (centres undefined) | 103 | 102 | 97.3 | 111 | 109 | 108 | 107 | 93.6 | 53.5 | 3.78 | 1.78 | 93.8 | 92.2 | 103 | 99 | 102 | 92.8 | 102 | 64.2 | 46.6 | 3.17 | 1.83 | 96.6 | 103 | 99.7 | 97.3 | 98.7 | 99.4 | 98.6 | 74.2 | 45.4 | 3.69 | 2.1
O=C1CCc2ccc(OCCCCN3CCN(c4cccc(Cl)c4Cl)CC3)cc2N1 | 99 | 101 | 99.7 | 85 | 110 | 98.9 | 104 | 104 | 89.9 | 106 | 87.3 | 106 | 110 | 106 | 74.3 | 107 | 101 | 102 | 100 | 106 | 105 | 78.3 | 92.8 | 98.9 | 96.9 | 80.5 | 98.7 | 106 | 100 | 89.2 | 93.6 | 94.1 | 73.1
COc1ccc(Nc2cc(-c3cnc(N)nc3)nc(N3CCOCC3)n2)cn1 | 98.7 | 101 | 98.4 | 102 | 103 | 94.9 | 96.7 | 89.9 | 63.7 | 71.1 | 71.9 | 89.9 | 90.9 | 93.9 | 90.7 | 100 | 87.7 | 89.5 | 79.3 | 52.2 | 54.1 | 56.6 | 93.7 | 90.4 | 95.8 | 98.7 | 102 | 98.6 | 86.3 | 88.1 | 50.4 | 54.1 | 51.7
O=C1N\2CCC3=C([NH]C4=C3C=CC=C4)C2=N/C5=CC=CC=C15 | 119 | 120 | 128 | 126 | 129 | 130 | 129 | 129 | 132 | 113 | 92.3 | – | – | – | – | – | – | – | – | – | – | – | – | – | – | – | – | – | – | – | – | – | –
CC(C)c1ccccc1Cc1cc(C(=O)Nc2ccc([S+](=O)([O-])c3ccccc3C(C)(C)C)cc2)c(O)c(O)c1O | 112 | 112 | 111 | 113 | 111 | 110 | 106 | 102 | 101 | 97.2 | 91.5 | 112 | 116 | 116 | 114 | 118 | 115 | 107 | 107 | 108 | 103 | 87.7 | 111 | 112 | 117 | 108 | 107 | 114 | 108 | 107 | 97.1 | 93.3 | 92.9
